Experimental data published in US9737078B2, “Compositions comprising a biological control agent and an insecticide” (priority 2012, dated 2017).

Assays:
[1] = system: Myzus persicae; experiment: Myzus persicae spray test (MYZUPE), Chinese cabbage leaf-disks; format: in vivo
Procedure: (§1) For all examples efficiencies of the compositions comprising at least one BCA and at least one specific insecticide has been determined by the “Colby-formula”: The expected efficacy of a given combination of two compounds is calculated as follows (see Colby, S. R., “Calculating Synergistic and antagonistic Responses of Herbicide Combinations”, Weeds 15, pp. 20-22, 1967):
(§2) If • X is the efficacy expressed in % mortality of the untreated control for test compound A at a concentration of m ppm respectively m g/ha, • Y is the efficacy expressed in % mortality of the untreated control for test compound B at a concentration of n ppm respectively n g/ha, • E is the efficacy expressed in % mortality of the untreated control using the mixture of A and B at m and n ppm respectively m and n g/ha, • then is E=X+Y−(X×Y/100)
(§3) If the observed insecticidal efficacy of the combination is higher than the one calculated as “E”, then the combination of the two compounds is more than additive, i.e., there is a synergistic effect.
(§4) To produce a suitable preparation of active compound, 1 part by weight of active compound is mixed with the stated amount of solvent and emulsifier, and the concentrate is diluted with emulsifier-containing water to the desired concentration. To produce a suitable preparation of a spore suspension the spores are diluted with emulsifier-containing water to the desired concentration. Chinese cabbage (Brassica pekinensis) leaf-disks infected with all instars of the green peach aphid (Myzus persicae), are sprayed with a preparation of the active ingredient of the desired concentration.
After the specified period of time, mortality in % is determined. 100% means all aphids have been killed; 0% means none of the aphids have been killed. The mortality values determined thus are recalculated using the Colby-formula (see above).

[2] = system: Tetranychus urticae; experiment: Tetranychus urticae spray test, OP-resistant, French beans; format: in vivo
Procedure: as §1, §2, §3
as §4, with “French beans (Phaseolus vulgaris) which are heavily infested” for “Chinese cabbage (Brassica pekinensis) leaf-disks infected”, “stages” for “instars”, “two spotted spidermite (Tetranychus urticae),” for “green peach aphid (Myzus persicae),”
After the specified period of time, mortality in % is determined. 100% means all spider mites have been killed and 0% means none of the spider mites have been killed. The mortality values determined thus are recalculated using the Colby-formula (see above).

Row | Structure (SMILES) | Efficacy in % after 6d (mortality) ([1]; 20 g/ha) | Efficacy in % after 6d (mortality) ([2]; 0.8 g ai/ha, after 6 d) | Efficacy in % after 2d (mortality) ([2]; 4 g ai/ha, after 2 d) | mortality at 0.8 g/ha ([1]; Myzus persicae, 144 h, 0.8 g/ha, after 6 d, read-out: Efficacy in % after 6d (mortality)) | mortality at 4 g/ha ([1]; Myzus persicae, 144 h, 4 g/ha, after 6 d, read-out: Efficacy in % after 6d (mortality)) | mortality at 20 g/ha ([2]; Tetranychus urticae, 48 h, 20 g ai/ha, after 2 d, read-out: Efficacy in % after 2d (mortality)) | mortality at 0.8 g/ha ([2]; Tetranychus urticae, 144 h, 0.8 g ai/ha, after 6 d, read-out: Efficacy in % after 6d (mortality))
1 | Cc1cc(C)c(C2=C(OC(=O)CC(C)(C)C)C3(CCCC3)OC2=O)c(C)c1 [Spiromesifen (1222), Spiromesifen] | 70% | 0% | 0% |  |  |  | 
2 | CCOC(=O)OC1=C(c2cc(C)ccc2C)C(=O)N[C@]12CC[C@@H](OC)CC2 [Spirotetramate (1223), Spirotetramat] |  |  |  | 0% | 70% | 0% | 0%
